{"source": "paper PMC6815936", "about": "“A Pan-Cyclophilin Inhibitor, CRV431, Decreases Fibrosis and Tumor Development in Chronic Liver Disease Models” (The Journal of Pharmacology and Experimental Therapeutics, 2019)", "key": {"P-gp": {"molecular_target": "P-gp (Homo sapiens, UniProt P08183)", "sequence (P08183 whole entry)": "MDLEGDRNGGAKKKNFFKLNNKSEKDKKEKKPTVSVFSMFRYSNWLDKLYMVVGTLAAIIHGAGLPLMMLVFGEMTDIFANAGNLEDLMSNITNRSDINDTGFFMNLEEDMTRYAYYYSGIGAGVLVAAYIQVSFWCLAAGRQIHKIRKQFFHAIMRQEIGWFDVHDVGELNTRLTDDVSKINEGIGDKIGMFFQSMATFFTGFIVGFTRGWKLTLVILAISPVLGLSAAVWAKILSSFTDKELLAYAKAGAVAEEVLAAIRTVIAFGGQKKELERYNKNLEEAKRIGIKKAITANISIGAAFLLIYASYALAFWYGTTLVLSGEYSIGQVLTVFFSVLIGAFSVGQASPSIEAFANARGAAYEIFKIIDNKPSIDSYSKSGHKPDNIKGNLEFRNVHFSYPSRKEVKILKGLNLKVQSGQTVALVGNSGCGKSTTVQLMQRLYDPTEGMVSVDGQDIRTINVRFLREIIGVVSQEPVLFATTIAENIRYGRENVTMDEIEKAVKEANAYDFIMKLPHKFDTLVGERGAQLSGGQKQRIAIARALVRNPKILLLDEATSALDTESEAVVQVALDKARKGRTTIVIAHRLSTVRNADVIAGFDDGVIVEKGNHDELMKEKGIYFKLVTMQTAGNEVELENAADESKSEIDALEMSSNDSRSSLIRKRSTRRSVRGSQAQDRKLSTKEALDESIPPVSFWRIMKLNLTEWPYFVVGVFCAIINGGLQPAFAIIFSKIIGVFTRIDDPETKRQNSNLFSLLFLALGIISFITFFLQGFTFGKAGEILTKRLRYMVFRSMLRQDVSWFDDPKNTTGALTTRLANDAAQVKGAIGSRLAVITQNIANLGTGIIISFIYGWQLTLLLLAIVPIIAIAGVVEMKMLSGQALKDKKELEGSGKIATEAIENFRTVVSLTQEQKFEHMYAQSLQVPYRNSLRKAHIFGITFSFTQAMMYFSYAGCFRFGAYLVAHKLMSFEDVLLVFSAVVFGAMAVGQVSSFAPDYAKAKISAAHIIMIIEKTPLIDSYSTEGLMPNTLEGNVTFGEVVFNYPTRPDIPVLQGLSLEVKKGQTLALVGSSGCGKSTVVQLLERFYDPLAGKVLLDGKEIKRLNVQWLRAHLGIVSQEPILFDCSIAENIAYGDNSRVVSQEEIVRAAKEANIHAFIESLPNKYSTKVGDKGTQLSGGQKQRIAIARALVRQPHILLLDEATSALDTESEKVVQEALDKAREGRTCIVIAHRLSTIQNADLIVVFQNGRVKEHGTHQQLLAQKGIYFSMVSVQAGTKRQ", "procedure": "(§2) Briefly, PGP and breast cancer resistance protein inhibition was assessed by measuring the bidirectional transport of substrates across cell monolayers in transwell culture plates. Efflux ratios were represented as (apical-to-basal flux)/(basal-to-apical flux), and efflux ratios were plotted relative to CRV431 concentration to derive IC50 values. Bile salt export pump (BSEP) and multidrug resistance protein (MRP)1 inhibition was assessed by measuring substrate accumulation in membrane vesicles prepared from insect Sf9 cells and recombinantly expressing BSEP and MRP2 (Genomembrane). Inhibition of all other transporters was assessed by measuring substrate accumulation in cells recombinantly expressing the transporter. Known inhibitors of each transporter were used as positive controls for the assays. […] Specific, ATP-dependent uptake was determined by subtracting uptake in negative control vesicles and cells not expressing the transporters, and secondly by subtracting uptake in the absence of ATP in the assays. Specific, ATP-dependent uptake was plotted as a function of CRV431 concentrations and fitted to nonlinear regressions to obtain IC50 values."}, "recombinant Cyp A (PPIA)": {"molecular_target": "T1, recombinant Cyp A (PPIA) (Homo sapiens, UniProt P62937)", "T1 construct": "purchased R&D Systems 3589-CAB", "T1 sequence (P62937 whole entry)": "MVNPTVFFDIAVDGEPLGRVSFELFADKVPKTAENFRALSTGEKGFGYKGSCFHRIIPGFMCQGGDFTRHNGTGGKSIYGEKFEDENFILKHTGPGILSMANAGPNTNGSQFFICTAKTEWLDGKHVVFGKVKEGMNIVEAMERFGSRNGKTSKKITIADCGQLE", "test": "Cyclophilin isomerase assay, Cyp A", "type": "biochemical", "description": "(§1) Cyclophilin isomerase activity was measured with an assay described by [Kofron et al. (1991)] with adaptations to 96-well plates. In this assay cyclophilins catalyze cis-to-trans isomerization of a proline peptide bond in a nitroanalide-coupled peptide substrate followed by cleavage of the trans-conformer peptide by α-chymotrypsin, release of the p-nitroaniline chromogen, and quantitation of p-nitroaniline by absorbance at 410 nm. All solutions were pre-equilibrated, and all assays were conducted at 4°C. Plates were preloaded with 5 µl peptide solution consisting of N-succinyl-alanine-alanine-proline-phenylalanine-p-nitroanilide (S7388; Sigma-Aldrich) and 400 mM lithium chloride (310468; Sigma-Aldrich) in anhydrous trifluoroethanol (T63002; Sigma-Aldrich). […] Absorbance measurements with a BMG Polarstar Galaxy plate reader were begun immediately and made at 6-second intervals for 6 minutes. Reaction curves were represented by increases in optical density 410 nm as a function of reaction time. For Ki determinations, initial reaction velocities were obtained from the reaction curves and plotted relative to substrate concentration, and the curves were fitted to the enzyme competitive inhibition model (GraphPad Prism) to derive Ki, maximum velocity (Vmax), and Michaelis constant values. For IC50 determinations, the reaction curves were fitted to one-phase exponential association regressions to obtain first-order rate constants."}, "[1]": {"molecular_target": "cyclophilins A, B, D, and G", "test": "Cyclophilin isomerase assay, all isoforms tested", "type": "biochemical", "description": "Cyclophilin isomerase activity was measured with an assay described by [Kofron et al. (1991)] with adaptations to 96-well plates. In this assay cyclophilins catalyze cis-to-trans isomerization of a proline peptide bond in a nitroanalide-coupled peptide substrate followed by cleavage of the trans-conformer peptide by α-chymotrypsin, release of the p-nitroaniline chromogen, and quantitation of p-nitroaniline by absorbance at 410 nm. All solutions were pre-equilibrated, and all assays were conducted at 4°C. Plates were preloaded with 5 µl peptide solution consisting of N-succinyl-alanine-alanine-proline-phenylalanine-p-nitroanilide (S7388; Sigma-Aldrich) and 400 mM lithium chloride (310468; Sigma-Aldrich) in anhydrous trifluoroethanol (T63002; Sigma-Aldrich). […] Cis-peptide represented 55% of the peptide isomers, based on initial reaction bursts, and therefore peptide concentration was corrected to 55% of input in subsequent calculations. […] Absorbance measurements with a BMG Polarstar Galaxy plate reader were begun immediately and made at 6-second intervals for 6 minutes. Reaction curves were represented by increases in optical density 410 nm as a function of reaction time. […]"}, "recombinant Cyp D (PPIF)": {"molecular_target": "T2, recombinant Cyp D (PPIF) (Homo sapiens, UniProt P30405)", "T2 construct": "purchased Cedarlane Laboratories CLENZ385", "T2 sequence (P30405 30-207)": "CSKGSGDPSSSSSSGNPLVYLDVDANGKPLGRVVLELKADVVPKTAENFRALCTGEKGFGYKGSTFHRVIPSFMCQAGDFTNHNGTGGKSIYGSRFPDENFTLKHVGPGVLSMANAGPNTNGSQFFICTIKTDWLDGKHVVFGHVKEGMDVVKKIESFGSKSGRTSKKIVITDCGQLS", "test": "Cyclophilin isomerase assay, Cyp D", "type": "biochemical", "description": "as §1, with “For IC50 determinations, the reaction curves were fitted to one-phase exponential association regressions to obtain first-order rate constants.” left out"}, "MATE-1": {"molecular_target": "T3, MATE-1 (Homo sapiens, UniProt Q96FL8)", "T3 construct": "expressed in transfected cells", "T3 sequence (Q96FL8 whole entry)": "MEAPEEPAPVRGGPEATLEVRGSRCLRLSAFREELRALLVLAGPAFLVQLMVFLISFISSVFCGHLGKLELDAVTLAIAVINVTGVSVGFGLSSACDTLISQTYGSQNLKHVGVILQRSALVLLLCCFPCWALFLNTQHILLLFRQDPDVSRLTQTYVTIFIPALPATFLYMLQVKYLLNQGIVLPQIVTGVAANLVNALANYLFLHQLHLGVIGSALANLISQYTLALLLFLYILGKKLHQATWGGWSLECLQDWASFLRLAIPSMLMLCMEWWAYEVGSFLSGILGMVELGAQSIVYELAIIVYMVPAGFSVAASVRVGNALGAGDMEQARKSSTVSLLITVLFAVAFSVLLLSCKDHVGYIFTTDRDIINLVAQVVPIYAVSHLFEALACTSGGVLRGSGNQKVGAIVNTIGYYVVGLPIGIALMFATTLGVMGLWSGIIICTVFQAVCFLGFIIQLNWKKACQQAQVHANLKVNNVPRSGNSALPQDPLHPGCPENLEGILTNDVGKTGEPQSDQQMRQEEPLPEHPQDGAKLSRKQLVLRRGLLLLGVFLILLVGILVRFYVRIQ", "test": "Drug transporter inhibition, MATE-1", "type": "in vitro ADME", "conditions": "MATE-1, HEK293", "procedure": "Inhibition of all other transporters was assessed by measuring substrate accumulation in cells recombinantly expressing the transporter. Known inhibitors of each transporter were used as positive controls for the assays. […] Specific, ATP-dependent uptake was determined by subtracting uptake in negative control vesicles and cells not expressing the transporters, and secondly by subtracting uptake in the absence of ATP in the assays. Specific, ATP-dependent uptake was plotted as a function of CRV431 concentrations and fitted to nonlinear regressions to obtain IC50 values."}, "OCT2": {"molecular_target": "OCT2 (Homo sapiens, UniProt O15244)", "sequence (O15244 whole entry)": "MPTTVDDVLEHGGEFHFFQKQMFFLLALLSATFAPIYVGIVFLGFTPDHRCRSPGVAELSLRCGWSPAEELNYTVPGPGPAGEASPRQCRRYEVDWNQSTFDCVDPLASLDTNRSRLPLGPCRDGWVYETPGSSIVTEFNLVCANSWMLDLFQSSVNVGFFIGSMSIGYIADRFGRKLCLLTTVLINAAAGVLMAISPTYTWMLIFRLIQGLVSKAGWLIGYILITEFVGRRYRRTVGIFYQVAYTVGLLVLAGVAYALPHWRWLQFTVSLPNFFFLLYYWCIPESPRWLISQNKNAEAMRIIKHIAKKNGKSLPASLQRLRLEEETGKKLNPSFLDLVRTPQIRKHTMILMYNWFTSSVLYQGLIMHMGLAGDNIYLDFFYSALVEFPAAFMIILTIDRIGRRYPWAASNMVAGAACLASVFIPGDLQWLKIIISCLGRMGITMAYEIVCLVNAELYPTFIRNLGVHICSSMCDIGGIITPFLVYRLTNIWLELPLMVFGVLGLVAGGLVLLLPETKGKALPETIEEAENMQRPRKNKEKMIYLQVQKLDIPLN", "test": "Drug transporter inhibition, OCT2", "conditions": "OCT2, HEK293", "procedure": "Bile salt export pump (BSEP) and multidrug resistance protein (MRP)1 inhibition was assessed by measuring substrate accumulation in membrane vesicles prepared from insect Sf9 cells and recombinantly expressing BSEP and MRP2 (Genomembrane). Inhibition of all other transporters was assessed by measuring substrate accumulation in cells recombinantly expressing the transporter. Known inhibitors of each transporter were used as positive controls for the assays. […] Specific, ATP-dependent uptake was determined by subtracting uptake in negative control vesicles and cells not expressing the transporters, and secondly by subtracting uptake in the absence of ATP in the assays. Specific, ATP-dependent uptake was plotted as a function of CRV431 concentrations and fitted to nonlinear regressions to obtain IC50 values."}, "[2]": {"test": "CRV431 concentrations in blood and liver, mice", "type": "in vivo, mouse", "conditions": "for Liver:Blood [CRV431] Ratio: Mouse", "source_text": "Male and female Sprague–Dawley rats and male C57BL/6 mice from the carbon tetrachloride and NASH studies were used to evaluate CRV431 pharmacokinetics and distribution. […] Terminal whole blood and livers were collected and frozen until drug extraction. Liver samples were homogenized in PBS or 1% formic acid (0.1 g–0.4 g liver sample per ml solvent) with bead-based homogenizers (TissueLyser or Beadruptor). […] Liver CRV431 concentrations were normalized to the masses of the liver samples."}, "OATP1B3": {"molecular_target": "OATP1B3 (Homo sapiens, UniProt Q9NPD5)", "sequence (Q9NPD5 whole entry)": "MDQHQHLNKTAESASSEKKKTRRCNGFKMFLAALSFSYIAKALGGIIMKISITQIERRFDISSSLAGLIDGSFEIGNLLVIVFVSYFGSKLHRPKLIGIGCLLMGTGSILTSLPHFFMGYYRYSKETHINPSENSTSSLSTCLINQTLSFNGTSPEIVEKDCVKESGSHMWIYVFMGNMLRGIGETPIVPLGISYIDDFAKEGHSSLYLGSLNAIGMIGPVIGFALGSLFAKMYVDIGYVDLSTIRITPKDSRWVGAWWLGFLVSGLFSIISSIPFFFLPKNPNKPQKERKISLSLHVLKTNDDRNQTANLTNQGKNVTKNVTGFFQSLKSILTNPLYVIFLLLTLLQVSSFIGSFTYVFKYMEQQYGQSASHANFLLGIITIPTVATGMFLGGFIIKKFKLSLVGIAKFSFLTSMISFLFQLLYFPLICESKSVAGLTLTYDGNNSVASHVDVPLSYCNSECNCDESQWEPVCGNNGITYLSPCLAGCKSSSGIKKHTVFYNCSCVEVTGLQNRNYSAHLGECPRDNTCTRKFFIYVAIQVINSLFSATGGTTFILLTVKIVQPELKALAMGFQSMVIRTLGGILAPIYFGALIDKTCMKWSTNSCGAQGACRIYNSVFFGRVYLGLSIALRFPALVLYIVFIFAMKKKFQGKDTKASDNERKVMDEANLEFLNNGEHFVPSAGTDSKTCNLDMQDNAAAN", "procedure": "as §2"}, "[3]": {"test_system": "human peripheral blood mononuclear cells", "test": "CFSE-PBMC proliferation", "type": "cell-based", "conditions": "highest tested concentration of 10 µM, 3 days", "procedure": "Peripheral blood mononuclear cells (PBMC) were isolated by Ficoll Paque Plus centrifugation (17144003; GE Life Sciences) of venous blood from a healthy human volunteer. Cells were incubated for 5 minutes with 5 µg/ml carboxyfluorescein diacetate succinimidyl ester (C1157; Thermo Fisher) to produce stable intracellular carboxyfluorescein succinimidyl ester (CFSE) labeling (CFSE-PBMC). […] Cells were collected after 3 days of culture incubation, and flow cytometry was used to measure the partitioning of CFSE into daughter cells arising from cell division (discrete cell populations with successively halved CFSE content). Daughter cells as a percentage of all CFSE-labeled cells were normalized to DMSO treatment (100% stimulation) and wells without CD3 antibody coating (nonstimulated)."}, "[4]": {"conditions": "mouse, in vivo, po, 50 mg/kg/day"}}, "note": "Like-named read-outs stand apart in the source and are kept apart here. Square brackets hold non-standard residues; d marks the D form. Peptide text beside a SMILES is read from it. NMeThr(4R-Me,4-(CH2)6NHAc) = CN[C@H](C(=O)O)[C@H](O)[C@H](C)CCCCCCNC(C)=O; NMeL = CN[C@@H](CC(C)C)C(=O)O; NMeV = CN[C@H](C(=O)O)C(C)C; dNMeA = CN[C@H](C)C(=O)O; Abu = CC[C@H](N)C(=O)O", "data": [{"smiles": "CC[C@@H]1NC(=O)[C@H]([C@H](O)[C@H](C)CCCCCCNC(C)=O)N(C)C(=O)[C@H](C(C)C)N(C)C(=O)[C@H](CC(C)C)N(C)C(=O)[C@H](CC(C)C)N(C)C(=O)[C@@H](C)NC(=O)[C@H](C)NC(=O)[C@H](CC(C)C)N(C)C(=O)[C@H](C(C)C)NC(=O)[C@H](CC(C)C)N(C)C(=O)[C@@H](C)N(C)C1=O", "note": "[CRV431] (cyclo(A[dA][NMeL][NMeL][NMeV][NMeThr(4R-Me,4-(CH2)6NHAc)][Abu][dNMeA][NMeL]V[NMeL]))", "values": [{"measurement": "IC50", "setting": "P-gp", "result": "> 50000", "unit": "nM"}, {"measurement": "Maximum enzyme velocity (Vmax) in the presence of compound", "setting": "recombinant Cyp A (PPIA)", "result": 5.3, "unit": "µmol/s per nanomole Cyp A"}, {"measurement": "IC50 Fold Difference", "setting": "recombinant Cyp A (PPIA); CsA IC50 vs CRV431 IC50, PPIA", "result": 10.2}, {"measurement": "IC50", "setting": "recombinant Cyp A (PPIA); PPIA (Cyp A), one peptide substrate concentration", "result": 2.5, "unit": "nM"}, {"measurement": "Ki", "setting": "recombinant Cyp A (PPIA); competitive enzyme inhibition model, multiple substrate concentrations, 4°C, read-out: Ki toward cyclophilin A", "result": 1.3, "unit": "nM"}, {"measurement": "fold higher potency of CRV431 vs CsA (Ki)", "setting": "recombinant Cyp A (PPIA); ratio of Ki values", "result": 13, "unit": "fold"}, {"measurement": "IC50", "setting": "[1]; range over Cyp A, G, read-out: IC50 values, all cyclophilin isoforms", "result": "2.5 to 7.3", "unit": "nM"}, {"measurement": "IC50", "setting": "[1]; range over isoforms A, G (abstract), read-out: Inhibitory constant or IC50 values", "result": "1 to 7", "unit": "nM"}, {"measurement": "IC50", "setting": "recombinant Cyp D (PPIF)", "result": 2.8, "unit": "nM"}, {"measurement": "IC50 Fold Difference", "setting": "recombinant Cyp D (PPIF); CsA IC50 vs CRV431 IC50, PPIF", "result": 3.6}, {"measurement": "CRV431 Inhibitory Potency vs. CsA", "setting": "MATE-1", "result": "Same (no inhibition)"}, {"measurement": "CRV431 Inhibitory Potency vs. CsA", "setting": "OCT2", "result": "Same (no inhibition)"}, {"measurement": "IC50", "setting": "OCT2", "result": "> 50000", "unit": "nM"}, {"measurement": "Liver:Blood [CRV431] Ratio", "setting": "[2]; CCl4, 50 mg/kg per day oral, day 42, 4 hours post-dose", "result": "15.4 ± 10.4"}, {"measurement": "Liver:Blood [CRV431] Ratio", "setting": "[2]; NASH, 50 mg/kg per day oral, day 189, 3 hours post-dose", "result": "11.9 ± 8.5"}, {"measurement": "peak blood levels at which CRV431 efficacy occurred in mice", "setting": "[2]; mouse, in vivo", "result": "1.2 to 1.4", "unit": "µg/mL"}, {"measurement": "Blood", "setting": "[2]; [4]", "result": "1.4 ± 1.5", "unit": "µg/mL"}, {"measurement": "Liver", "setting": "[2]; [4]", "result": "11.6 ± 9.0", "unit": "µg/g"}, {"measurement": "IC50", "setting": "OATP1B3", "result": 600, "unit": "nM"}, {"measurement": "inhibition of proliferation", "setting": "[3]", "result": 40, "unit": "%"}]}]}
